# In patent US10940240B2, “Catheter locking solution and catheter locking therapy” (Medical Components, Inc., priority 2016, dated 2021):
# Tested on: Staphylococcus aureus CIP 65.25 (methicillin resistant)
# Assay: anti-biofilm assay on 24 h biofilms formed on Chronoflex catheter segments in microfermentors
# Type: cell-based
# Conditions: for effect in lysing the bacteria compared with 15 v/v % EtOH: EtOH alone; for number of viable cells on catheter segment (Moyenne): biofilm on catheter segment exposed to solution for 24 hours at 37° C., triplicate, limit of detection 10 CFU per KT segment; for effect on bacterial survival / lysis of bacterial cells: biofilm exposed 24 hours at 37° C., complete lysis = under the threshold of detection (10 CFU per KT segment)
# Description: For example, preliminary assay testing of anti-biofilm properties of a TCEA solution comprising a 10.0 w/v % concentration of trisodium citrate at and 15.0, 20.0 and 25.0 v/v % concentrations of ethyl alcohol (i.e., ethanol or EtOH) were conducted. The testing was performed in the following manner.
# Ethanol 15%, 20% and 25% (v/v)+trisodium citrate 10% (w/v)
# Controls: Ethanol 15%, 20% and 25% • Trisodium citrate 10% • Water for injection The material tested were segments, each 1 centimeter long, of sterile catheters Chronoflex (“catheter segments”). The strains used were Staphylococcus aureus CIP 65.25 (methicillin resistant).
# Biofilms were formed in aerated microfermentors with catheter segments fixed onto an internal removable glass slide of the microfermentors. Strains from frozen stocks were cultivated in Trypticase Soja broth (“TSB”). An inoculum of 10^8 cells was used to inoculate microfermentors containing the catheter segments. A continuous flow of 54 milliliters per hour (“mL/h”) of TSB and constant aeration with sterile pressed air at 0.3 bar were used to obtain continuous flow-through culture conditions. After 24 hours of incubation, the catheter segments were removed from the incubator and separated from their respective microfermentor device. Each catheter segment was then carefully rinsed in 1 mL of saline.
# To determine the number of viable cells within the biofilms formed onto the catheter segments before being subjected to or made to be in contact with the test solutions (i.e., before treatment), the biofilms (triplicate for each strain) were resuspended in TSB by sonication and vortexing. Serial dilutions of the resulting suspensions were performed and plated onto appropriate agar plates to determine the number of viable cells after overnight incubation at 37 degrees Celsius (“° C.”).
# In parallel, catheter segments to be tested were placed in a tube containing 1 mL of the different lock solutions: (i) ethanol at 15%, 20% and 25% (vol/vol); (ii) trisodium citrate at 10% (vol/vol); (iii) ethanol/tri sodium citrate mixing solutions (15%-10%, 20%-10%, 25%-10% (vol/vol)), wherein ethanol concentrations were 15%, 20%, and 25%, and trisodium citrate concentration was 10%; and (iv) water for injection as control. For every organism, the experiments were repeated in triplicate, and during each treatment assay catheter segments were exposed to the different solutions for 24 hours at 37° C. Subsequently, the catheter segments were removed, rinsed once with saline, and the number of adherent viable microorganisms determined, as described above. In FIG. 1, the number of viable cells is expressed as Colony Forming Unit (“CFU”), and the bacteria count is expressed as a decimal logarithm, log 10. (Note: FIG. 1 expresses the CFU as UFC, which is an acronym for unite formant colonie and is the same unit of measure as CFU.). The limit of detection in the experimental conditions is 10 CFU per KT segment, thus the threshold of detection is 10 CFU per KT segment. KT is a catheter sample used during testing, and its length can range from 3 to 5 centimeters. A KT can be a specimen of a catheter that have been cut (1 meter long usually) and placed into a microfermentor apparatus so that biofilms are formed at a surface of the catheter. Once the biofilm is formed and place into contact with the catheter lock solution to be tested, a measured the number of bacterial viable cells still present at the surface of the catheter is obtained. The limit of detection is 10 Colony Forming Units per specimen of catheter.
# During the study, the disclosed catheter locking solution had been tested to ascertain whether it can eradication viable bacterial and prevent regrowth of biofilm. […] The catheter locking solution had been tested against Staphylococcus aureus (methicillin resistant).
Compound,effect in lysing the bacteria compared with 15 v/v % EtOH,number of viable cells on catheter segment (Moyenne) [CFU],effect on bacterial survival / lysis of bacterial cells (listed as EtOH alone (at 15 v/v %)),"effect on bacterial survival / lysis of bacterial cells (listed as EtOH alone, at 15 v/v % concentration)",effect on bacterial survival / lysis of bacterial cells (listed as Ethyl alcohol at a concentration of 15.0 v/v %),bacterial cells after treatment (decreased from 1.00 E+07) (preliminary in vitro testing),effect on bacterial survival / lysis of bacterial cells
ethyl alcohol [EtOH 25% (v/v)],significantly greater effect in lysing the bacteria,1.00E+01,,,,,
ethyl alcohol [EtOH 20% (v/v)],significantly greater effect in lysing the bacteria,1.00E+01,,,,,
ethyl alcohol [EtOH 15% (v/v)],,2.12E+02,did not lyse all the bacterial cells,did not lyse all the bacterial cells,did not lyse all bacterial cells,1.00E+02,
"O=C([O-])CC(O)(CC(=O)[O-])C(=O)[O-].[Na+].[Na+].[Na+] [citrate 10% (m/v), trisodium citrate]",,3.64E+06,,,,,no effect on the bacterial survival
